In general, Kd refers to the constant that tells how readily two partners part at equilibrium. Low readings indicate a tighter complex, high ones a looser complex. The IC50 is the point on the concentration scale where inhibition reaches its midpoint.

The text below walks through data of PMC8267945, “Plumbagin, a Natural Product with Potent Anticancer Activities, Binds to and Inhibits Dihydroorotase, a Key Enzyme in Pyrimidine Biosynthesis” (International Journal of Molecular Sciences, 2021).

The target of data set [1] is T1, huDHOase (Homo sapiens, UniProt P27708).
T1 construct: huDHOase1456-1846-NdeI-N; made in house; host or cells: E. coli BL21(DE3)
T1 sequence (P27708 1456-1846): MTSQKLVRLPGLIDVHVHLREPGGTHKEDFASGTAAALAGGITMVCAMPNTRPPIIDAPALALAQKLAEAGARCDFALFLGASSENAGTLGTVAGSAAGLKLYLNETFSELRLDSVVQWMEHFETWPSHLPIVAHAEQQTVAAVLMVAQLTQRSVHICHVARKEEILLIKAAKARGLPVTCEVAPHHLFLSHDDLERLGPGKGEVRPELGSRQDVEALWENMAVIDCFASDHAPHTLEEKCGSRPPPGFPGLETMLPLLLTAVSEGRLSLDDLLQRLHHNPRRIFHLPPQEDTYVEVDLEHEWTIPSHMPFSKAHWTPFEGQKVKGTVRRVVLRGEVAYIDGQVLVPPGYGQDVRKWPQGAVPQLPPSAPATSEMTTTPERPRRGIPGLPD
The data set is described as follows: rapid spectrophotometric DHOase enzyme assay (hydrolysis of DHO). The data set is classed as biochemical. The note with it: 200 μM compound in the standard assay. As to the method: A rapid spectrophotometric assay was used to determine the activity of DHOase. Briefly, the hydrolysis of DHO was measured at 25 °C as the decrease in absorbance at 230 nm. The purified DHOase was added to a 2 mL solution containing 0.5 mM DHO and 100 mM Tris–HCl at pH 8.0 to start the reaction. […] The hydrolysis of DHO was monitored using a UV/Vis spectrophotometer (Hitachi U 3300; Hitachi High-Technologies, Tokyo, Japan). A unit of activity was defined as the amount of enzyme catalyzing the hydrolysis of 1 μmol DHO/min, and the specific activity was expressed in terms of units of activity per mg of enzyme. The kinetic parameters Km and Vmax were determined from a nonlinear plot by fitting the hydrolyzing rate from individual experiments to the Michaelis–Menten equation (Enzyme Kinetics module of Sigma-Plot; Systat Software, Chicago, IL, USA).

In data set [2] the target is T2, StDHOase (Salmonella typhimurium, UniProt P06204).
T2 construct: made in house; host or cells: E. coli BL21(DE3)
T2 sequence (P06204 whole entry): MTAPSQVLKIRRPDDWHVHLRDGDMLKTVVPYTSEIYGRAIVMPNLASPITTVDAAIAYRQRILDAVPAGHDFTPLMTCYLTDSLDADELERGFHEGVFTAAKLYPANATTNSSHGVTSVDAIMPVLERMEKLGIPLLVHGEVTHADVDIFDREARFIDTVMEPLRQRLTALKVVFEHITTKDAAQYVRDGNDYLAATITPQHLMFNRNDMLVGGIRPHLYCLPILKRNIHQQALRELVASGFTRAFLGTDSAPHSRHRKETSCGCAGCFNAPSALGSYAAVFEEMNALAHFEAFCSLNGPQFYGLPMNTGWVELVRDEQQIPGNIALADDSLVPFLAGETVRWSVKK
The description is as above. It counts as biochemical, Salmonella enterica serovar Typhimurium LT2. The note with it: PLU 200 μM. How it is done:
(§1) A rapid spectrophotometric assay was used to determine the activity of DHOase. Briefly, the hydrolysis of DHO was measured at 25 °C as the decrease in absorbance at 230 nm. The purified DHOase was added to a 2 mL solution containing 0.5 mM DHO and 100 mM Tris–HCl at pH 8.0 to start the reaction. The extinction coefficient of DHO was 0.92 mM^−1·cm^−1 at 230 nm. The hydrolysis of DHO was monitored using a UV/Vis spectrophotometer (Hitachi U 3300; Hitachi High-Technologies, Tokyo, Japan). A unit of activity was defined as the amount of enzyme catalyzing the hydrolysis of 1 μmol DHO/min, and the specific activity was expressed in terms of units of activity per mg of enzyme. The kinetic parameters Km and Vmax were determined from a nonlinear plot by fitting the hydrolyzing rate from individual experiments to the Michaelis–Menten equation (Enzyme Kinetics module of Sigma-Plot; Systat Software, Chicago, IL, USA).

For data set [3], the target named is T3, KpDHOase (Klebsiella pneumoniae subsp. pneumoniae, UniProt A6T7D6).
T3 construct: made in house; host or cells: E. coli BL21(DE3)
T3 sequence (A6T7D6 whole entry): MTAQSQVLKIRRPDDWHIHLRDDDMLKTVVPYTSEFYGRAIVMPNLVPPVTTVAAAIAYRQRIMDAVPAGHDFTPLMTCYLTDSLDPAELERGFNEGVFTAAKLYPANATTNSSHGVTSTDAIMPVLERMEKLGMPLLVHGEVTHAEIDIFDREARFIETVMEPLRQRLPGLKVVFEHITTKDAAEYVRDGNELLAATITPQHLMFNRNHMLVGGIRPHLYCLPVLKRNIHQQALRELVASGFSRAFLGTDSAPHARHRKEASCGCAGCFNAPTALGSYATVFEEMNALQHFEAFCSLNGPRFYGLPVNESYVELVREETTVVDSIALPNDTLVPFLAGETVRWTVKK
The data set is described as above. The data set is classed as biochemical, Klebsiella pneumonia. The note with it: PLU 200 μM. How it is done:
as §1

Data set [4] concerns the target T2, StDHOase. Put plainly: fluorescence quenching binding assay. Details: species or system Salmonella enterica serovar Typhimurium LT2. How it is done:
Figure 7 The data used to calculate the Kd values of various DHOases. (A) The fluorescence emission spectra of ScDHOase with PLU of different concentrations (0–200 μM; 0, 10, 20, 50, 75, 100, 125, 150, 175, and 200 μM). The decrease in intrinsic fluorescence of protein was measured at 324 nm upon excitation at 280 nm with a spectrofluorometer. […] (B) The fluorescence emission spectra of huDHOase with PLU of different concentrations (0–200 μM). (C) The fluorescence emission spectra of StDHOase with PLU of different concentrations. (D) The fluorescence emission spectra of ScDHOase–R18A with PLU of different concentrations. (E) The fluorescence emission spectra of ScDHOase–T106A with PLU of different concentrations. […] (F) An aliquot amount of PLU was added to the enzyme solution to determine the Kd. The Kd was obtained by the following equation: ΔF = ΔFmax − Kd(ΔF/[PLU]). Data points are an average of 2–3 determinations within a 10% error.
The decrease in the intrinsic fluorescence of DHOase was measured with a spectrofluorometer (Hitachi F-2700; Hitachi High-Technologies, Japan). The Kd was obtained using the following equation: ΔF = ΔFmax − Kd(ΔF/[PLU]).
The Kd value of the purified DHOase was determined using the fluorescence quenching method as previously described for DHOase, DHPase, and DnaB helicase. Briefly, an aliquot of the compound was added into the solution containing DHOase (1 μM) and 50 mM HEPES at pH 7.0. The decrease in the intrinsic fluorescence of DHOase was measured at 324 nm upon excitation at 280 nm and 25 °C with a spectrofluorometer (Hitachi F-2700; Hitachi High-Technologies, Japan). The Kd was obtained using the following equation: ΔF = ΔFmax − Kd(ΔF/[PLU]).

The subject of data set [5] is 4T1 cells. The data set is described as follows: chromatin condensation assay (Hoechst staining). The data set is classed as cell-based, mouse. As to the method:
The apoptosis in 4T1 cells was assayed with Hoechst 33342 staining. The 4T1 cells were seeded in 6-well plates at a density of 5 × 10^5 cells per well in a volume of […] of culture medium. Cells were allowed to adhere for 16 h. After different treatments, cells were incubated for an additional 24 h, washed with PBS, stained with the Hoechst dye (1 μg·mL^−1) in the dark at RT for 10 min, and imaged using an inverted fluorescence microscope (Axiovert 200 M; Zeiss Axioplam, Oberkochen, Germany) at excitation and emission wavelengths (λem) of 360 and 460 nm, respectively. The apoptotic index was calculated as follows: apoptotic index = apoptotic cell number/(apoptotic cell number + nonapoptotic cell number).

The target in data set [6] is DHPase. Also on record: method as in PMID 32147511. The settings on record: cited from earlier work.
The test system of data set [7] is tumor growth. The note with it: cited from earlier work.

Consider `CC1=CC(=O)c2c(O)cccc2C1=O` [PLU, plumbagin], for which, in data set [1], the “decrease of the activity of huDHOase” value came out at 30%. In addition, the “decrease of the activity of StDHOase” value in data set [2] turned out to be 71%. Further, in data set [3], the “decrease of the activity of KpDHOase” value turned out to be 69%. In data set [4], binding was put at a Kd of 80.3 ± 2.5 µM. In data set [4] (PLU 0–200 μM), the “quenching of StDHOase” value was found to be 85.9%, the “λem shift of StDHOase” value is recorded as 11.0 nm and the “λmax of StDHOase emission” value was “from 330.5 to 319.5”. For the same compound, the “apoptosis with DNA fragmentation” value in data set [5] (10 μM PLU) was 100%. In addition, the Apoptotic rate in data set [5] (PLU 2 μM) was 8%. The IC50 in data set [6] was 58 µM. The “tumor growth in PLU-treated mice” value in data set [7] (animal models) is “significant reduction in tumor growth”. Besides, the “side effects in PLU-treated mice” value in data set [7] (mouse, in vivo) is reported as “no side effects”.
